The results in this text go back to PubChem BioAssay AID1963968 (Molecular Pharmacology Branch, DTP, NCI, 2024).

For the test, the system named is 945468-187-T-J3-PDC spheroids with HUVEC/MSC, viability. Description: Anticancer human tumor 945468-187-T-J3-PDC patient-derived rectal carcinoma cell line growth inhibition [PI3K]. The note with it: for viability, T/C: stronger effect = lower value. An excerpt: Combinatorial screen of targeted agents with the PI3K inhibitors inavolisib, alpelisib, duvelisib, and copanlisib in multi-cell type tumor spheroids
A high-throughput screen of multi-cell type tumor spheroids was designed to identify active combinations of targeted small molecules and PI3K pathway inhibitors. Complex spheroids include a stromal component modeled by human endothelial cells (HUVEC) and fibroblasts modeled by human mesenchymal stem cells (MSCs). The concentration ranges selected for each drug and investigational agent were based upon clinically achievable concentrations if the clinical Cmax of the agent was known.
Compounds. The drugs and investigational agents: inavolisib (NSC800729), alpelisib (NSC765974), duvelisib (NSC772469), copanlisib (NSC816437), ipatasertib (NSC767898), afuresertib (NSC778305), talazoparib (NSC767125), sapanisertib (NSC764658), selumetinib (NSC741078), tovorafenib (DAY101, NSC766906), vemurafenib (NSC761431), ravoxertinib (NSC781343), sotorasib (NSC818433), MRTX1133 (NSC 836407), abemaciclib (NSC 768073), palbociclib (NSC758247), venetoclax (NSC 766270), SY5609 (NSC837396), enzalutamide (NSC755605), and darolutamide (NSC825331), were obtained from the National Cancer Institute (NCI) Developmental Therapeutics Program Chemical Repository. The FDA-approved anticancer drug set is available from the NCI Developmental Therapeutics Program. […] The stock solutions were prepared in dimethyl sulfoxide (DMSO, Sigma-Aldrich, St. Louis, MO, cat. D2650) at 800-fold the tested concentration and stored at -70 degrees C prior to their use. All drugs and investigational agents were tested over a range starting from a high concentration at or near the clinical Cmax and decreasing in half-log increments. If the clinical Cmax for an agent had not been determined, the highest concentration tested was 10 microM.
Cell Culture. All cells were maintained in an incubator at 37 degrees C and 5% CO2 with 95% humidity. The PDC lines were cultured according to standard operating procedures established by the NCI PDMR (https://pdmr.cancer.gov/sops/default.htm). All PDCs were thawed and cultured in Matrigel-coated flasks prepared with a working solution of 1X Ham's F-12 nutrient mix, without supplementation (Invitrogen, Waltham, MA, cat. 11765054), 100 U/mL penicillin-streptomycin (Invitrogen, cat. 15140122), and 2.5% Matrigel (Corning Inc., Corning, NY, cat. 354248) for the first three passages. The 354836-022-R-J1-PDC, 475296-252-R-J1-PDC, and 997726-040-R-J2-PDC lines were cultured in 6A media, which includes advanced DMEM/F-12 (Thermo Fisher Scientific, cat. 12634028), 10 mM HEPES (Thermo Fisher Scientific, cat. 15630080), 1X GlutaMAX supplement (Thermo Fisher Scientific, cat. 35050061), 0.1 mg/mL primocin (InvivoGen, San Diego, CA, cat. ant-pm-2), 10% defined fetal bovine serum, heat inactivated (HyClone Laboratories Inc., Logan, UT, cat. SH30070.03HI), 50% L-WRN conditioned media (ATCC, cat. CRL-3276), 1.25 mM N-Acetyl-L-cysteine (Sigma-Aldrich, cat. A9165), 10 mM nicotinamide (Sigma-Aldrich, cat. N0636), 1X B-27 supplement (Thermo Fisher Scientific, cat. 17504044), 1X N-2 supplement (Thermo Fisher Scientific, cat. 17502048), and 10 microM Y-27632 dihydrochloride (Tocris Bioscience, Bristol, United Kingdom, cat. 1254). The 624824-186-R-J2-PDC line was cultured in 6C/Colon 1B media, which includes all 6A media components plus 50 ng/mL human EGF recombinant protein (Thermo Fisher Scientific, cat. PHG0311). […]

The mark [1] stands for this setting: compound alone, run of 06/12/2023.
Setting [2] is: compound alone, run of 06/13/2023.

SMILES strings stand for the structures. Values joined by “and” are separate entries in the source; they are usually repeats but may differ in a detail not shown here. Identical values can stand only once. Where only a bound is given, the exact number is not on record here.
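Note: spheroids exposed to agents for 7 days before viability read.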

One may read the viability, T/C as the result in the treated group divided by that in the control group, in per cent. By IC50 is commonly meant the concentration at which inhibition is half-maximal. On to `CC(=O)c1c(C)c2cnc(Nc3ccc(N4CCNCC4)cn3)nc2n(C2CCCC2)c1=O`, for which the viability, T/C (compound 0.000316 µM) is 101% [middle of 4 runs]; the viability, T/C (compound 0.001 µM) is 100% [middle of 4 runs]; the viability, T/C (compound 0.00316 µM) was 83.2% and 102% (2×) and 91.3%; the viability, T/C (compound 0.01 µM) was 93.4% [middle of 4 runs]; the viability, T/C (compound 0.0316 µM) is 113% [middle of 4 runs]; the viability, T/C (compound 0.1 µM) is 103% (2×) and 106% and 99.3%. Moreover, the IC50 (curve of compound) was > 0.1 µM.
For the compound `CC(C)NCC(C(=O)N1CCN(c2ncnc3c2C(C)CC3O)CC1)c1ccc(Cl)cc1` (stereo not given), the viability, T/C is, setting by setting: (compound 0.0316 µM) 92.6% [middle of 4 runs]; (compound 0.316 µM) 100% [middle of 4 runs]; (compound 1 µM) 94.6% [middle of 4 runs]; (compound 3.16 µM) 65.2% [middle of 4 runs]; (compound 10 µM) 39.3% [middle of 4 runs].
With `CC(C)n1nc(-c2ccc3oc(N)nc3c2)c2c(N)ncnc21`, the viability, T/C is, setting by setting: (compound 0.000316 µM) 91.3% [middle of 4 runs]; (compound 0.001 µM) 94.2% [middle of 4 runs]; (compound 0.00316 µM) 104% [middle of 4 runs]; (compound 0.01 µM) 102% [middle of 4 runs]. For the same compound, where the note is “curve of compound”, the half-inhibitory concentration (IC50) is > 0.1 µM and 0.0939 µM.
As for `CC(Cn1ccc(-c2ccc(C#N)c(Cl)c2)n1)NC(=O)c1cc(C(C)O)[nH]n1` (stereo not given), the viability, T/C (compound 0.0316 µM) was 89.7% [middle of 4 runs]; the viability, T/C (compound 0.1 µM) was 97.5% [middle of 4 runs]; the viability, T/C (compound 0.316 µM) was 94.9% [middle of 4 runs]; the viability, T/C (compound 1 µM) was 99.5% [middle of 4 runs]; the viability, T/C (compound 3.16 µM) was 114% [middle of 4 runs]; the viability, T/C (compound 10 µM) is 89.8% and 101% (2×) and 99%. The half-inhibitory concentration (IC50) (curve of compound) is > 10 µM.
`CC(Nc1ccc2c(c1)OCCn1cc(N3C(=O)OCC3C(F)F)nc1-2)C(N)=O` (stereo not given): the viability, T/C (compound 0.00316 µM) is 103% [middle of 7 runs]; the viability, T/C (compound 0.01 µM) was 97.2% [middle of 7 runs]; the viability, T/C (compound 0.0316 µM) was 99.6% [middle of 7 runs]; the viability, T/C (compound 0.316 µM) was 99.6% [middle of 7 runs]; the viability, T/C (compound 1 µM) is 73% [middle of 7 runs]. For the same compound, the IC50 under setting [1] is > 1 µM.
Turning to `CC(Nc1ncnc2nc[nH]c12)c1cc2cccc(Cl)c2c(=O)n1-c1ccccc1` (stereo not given), the viability, T/C was 100% [middle of 8 runs] (compound 0.0316 µM); 96% [middle of 8 runs] (compound 0.1 µM); 96% [middle of 8 runs] (compound 0.316 µM); 99.5% [middle of 8 runs] (compound 1 µM); 98.2% [middle of 8 runs] (compound 3.16 µM); 98.8% [middle of 8 runs] (compound 10 µM). Moreover, the IC50 under setting [2] is > 10 µM.
With `CC1(C)CCC(CN2CCN(c3ccc(C(=O)NS(=O)(=O)c4ccc(NCC5CCOCC5)c([N+](=O)[O-])c4)c(Oc4cnc5[nH]ccc5c4)c3)CC2)=C(c2ccc(Cl)cc2)C1`, the viability, T/C reads like this: (compound 0.0316 µM) 105% [middle of 4 runs]; (compound 0.1 µM) 110% [middle of 4 runs]; (compound 0.316 µM) 101% [middle of 4 runs]; (compound 1 µM) 112% [middle of 4 runs]; (compound 3.16 µM) 130% [middle of 4 runs]. Besides, the IC50 (curve of compound) is > 10 µM and 7.28 µM and 6.4 µM.
As for `CCCS(=O)(=O)Nc1ccc(F)c(C(=O)c2c[nH]c3ncc(-c4ccc(Cl)cc4)cc23)c1F`, the viability, T/C (compound 0.0316 µM) was 105% [middle of 4 runs]; the viability, T/C (compound 0.1 µM) is 97.1% [middle of 4 runs]; the viability, T/C (compound 1 µM) is 102% [middle of 4 runs]; the viability, T/C (compound 3.16 µM) was 103% [middle of 4 runs]. For the same compound, the IC50 (curve of compound) is 6.88 µM [middle of 4 runs].
As to `CCN1CCN(Cc2ccc(Nc3ncc(F)c(-c4cc(F)c5nc(C)n(C(C)C)c5c4)n3)nc2)CC1`, the viability, T/C (compound 0.00316 µM) is 91.2% [middle of 4 runs]; the viability, T/C (compound 0.01 µM) is 103% and 85.4% and 90.3% (2×); the viability, T/C (compound 0.0316 µM) was 97.6% [middle of 4 runs]; the viability, T/C (compound 0.1 µM) was 107% [middle of 4 runs]; the viability, T/C (compound 0.316 µM) is 110% [middle of 4 runs]; the viability, T/C (compound 1 µM) is 99.2% [middle of 4 runs]. In addition, under “curve of compound”, the IC50 was > 1 µM.
As for `CNC(=O)c1ccc(N2C(=S)N(c3ccc(C#N)c(C(F)(F)F)c3)C(=O)C2(C)C)cc1F`, the viability, T/C (compound 0.0316 µM) is 100% (2×) and 113% and 95%; the viability, T/C (compound 0.1 µM) was 108% [middle of 4 runs]; the viability, T/C (compound 0.316 µM) was 104% [middle of 4 runs]; the viability, T/C (compound 3.16 µM) is 113% (2×) and 102% and 121%; the viability, T/C (compound 10 µM) was 109% [middle of 4 runs]. The IC50 (curve of compound) is > 10 µM.
Regarding `COc1c(OCCCN2CCOCC2)ccc2c3n(c(=NC(=O)c4cnc(N)nc4)nc12)CCN3`, the viability, T/C (compound 0.00316 µM) was 96% [middle of 8 runs]; the viability, T/C (compound 0.01 µM) was 96.8% [middle of 8 runs]; the viability, T/C (compound 0.0316 µM) was 95.7% [middle of 8 runs]; the viability, T/C (compound 0.1 µM) was 39.7% [middle of 8 runs]; the viability, T/C (compound 0.316 µM) was 19.6% [middle of 8 runs]; the viability, T/C (compound 1 µM) was 16.4% [middle of 8 runs]. Moreover, the IC50 under setting [2] is 80.4 nM [middle of 8 runs].
Take `C[C@@H](NC(=O)c1ncnc(N)c1Cl)c1ncc(C(=O)Nc2cc(C(F)(F)F)c(Cl)cn2)s1`: the viability, T/C is 94.2% [middle of 4 runs] (compound 0.0316 µM); 104% [middle of 4 runs] (compound 0.1 µM); 101% (2×) and 91.3% and 98.2% (compound 0.316 µM); 105% [middle of 4 runs] (compound 1 µM); 106% [middle of 4 runs] (compound 3.16 µM); 108% [middle of 4 runs] (compound 10 µM). The IC50 (curve of compound) is > 10 µM.
`Cc1nc(NC(=O)N2CCCC2C(N)=O)sc1-c1ccnc(C(C)(C)C(F)(F)F)c1` (stereo not given): the viability, T/C (compound 0.0316 µM) was 90% [middle of 7 runs]; the viability, T/C (compound 0.1 µM) was 96% [middle of 8 runs]; the viability, T/C (compound 0.316 µM) was 99.1% [middle of 8 runs]; the viability, T/C (compound 1 µM) is 103% [middle of 8 runs]; the viability, T/C (compound 3.16 µM) is 106% [middle of 8 runs]; the viability, T/C (compound 10 µM) was 62.1% [middle of 8 runs]. Moreover, the IC50 under setting [1] was > 10 µM.
Take `Cn1cnc2c(F)c(Nc3ccc(Br)cc3Cl)c(C(=O)NOCCO)cc21`: the viability, T/C by setting is: (compound 0.00949 µM) 103% [middle of 4 runs]; (compound 0.03 µM) 109% [middle of 4 runs]; (compound 0.0949 µM) 116% [middle of 4 runs]; (compound 0.3 µM) 119% (2×) and 99.5% and 130%; (compound 0.949 µM) 108% [middle of 4 runs]. Besides, where the note is “curve of compound”, the half-inhibitory concentration (IC50) was > 3 µM.
As for `Cn1nccc1Nc1nccc(-c2ccn(C(CO)c3ccc(Cl)c(F)c3)c(=O)c2)n1` (stereo not given), the viability, T/C (compound 0.0316 µM) is 95.4% [middle of 4 runs]; the viability, T/C (compound 0.1 µM) was 104% [middle of 4 runs]; the viability, T/C (compound 1 µM) was 111% [middle of 4 runs]; the viability, T/C (compound 3.16 µM) was 136% (2×) and 113% and 127%. Also, the IC50 (curve of compound) is > 10 µM.
Take `Cn1ncnc1[C@H]1c2n[nH]c(=O)c3cc(F)cc(c23)N[C@@H]1c1ccc(F)cc1`: the viability, T/C was 101% and 102% and 91.8% (compound 0.000316 µM); 91.2% and 106% and 101% (compound 0.001 µM); 99.4% and 89% and 90.5% (compound 0.00316 µM); 86.2% and 91.3% and 94.7% (compound 0.01 µM); 98.2% and 92.9% and 117% (compound 0.0316 µM); 110% and 96.3% and 103% (compound 0.1 µM). Further, the IC50 (curve of compound) is > 0.1 µM.
